In ChEMBL document CHEMBL1201862, “PubChem BioAssay data set” (2004) one finds AC50, EC50 and IC50 data, which are given here for eight molecules.

Each structure is given as a SMILES string. The source made the active and inactive calls.

For one assay, the target named is Paired box protein Pax-8 (Homo sapiens, UniProt Q06710). The experiment in a line: inhibitors of PAX8-driven TPO luciferase reporter, dose response, RMG-I cells, cherry-pick (AID 687027).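 Also: luciferase reporter driven by Pax8 target thyroperoxidase promoter measured by SteadyGlo luminescence.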 The class given is functional, cell-based. (In general: A reporter such as luciferase makes a cellular process visible.)
Paired box protein Pax-8, sequence (Q06710 whole entry): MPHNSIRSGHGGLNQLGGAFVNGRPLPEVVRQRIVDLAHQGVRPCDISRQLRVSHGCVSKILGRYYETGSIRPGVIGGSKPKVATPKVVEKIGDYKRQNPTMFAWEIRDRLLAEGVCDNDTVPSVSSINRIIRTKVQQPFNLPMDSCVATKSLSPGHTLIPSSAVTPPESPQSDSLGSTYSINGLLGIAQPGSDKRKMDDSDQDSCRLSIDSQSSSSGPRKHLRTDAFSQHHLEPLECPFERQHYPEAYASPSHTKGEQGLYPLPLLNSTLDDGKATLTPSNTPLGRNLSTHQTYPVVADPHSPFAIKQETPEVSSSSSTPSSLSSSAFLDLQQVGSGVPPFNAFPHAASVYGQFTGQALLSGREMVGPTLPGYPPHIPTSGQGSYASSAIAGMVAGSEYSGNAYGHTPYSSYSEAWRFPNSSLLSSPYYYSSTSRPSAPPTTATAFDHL
The nature of assay [1]: Shn3 3'UTR reporter inhibitors, dose response, cell-based, Clone20 osteoblasts, firefly luciferase, cherry-picked (AID 624132).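 Also: firefly luciferase luminescence from reporter carrying the Shn3 3'UTR in osteoblasts.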 The class given is functional.
The nature of assay [2]: HepG2 cell cytotoxicity, dose response, cytotoxicity control for Shn3 inhibitor project, CellTiter-Glo, cherry-picked (AID 624134). It counts as functional, cell-based. (ATP-based viability assays read luminescence as a measure of living cells.)
Assay [3] in a line: growth suppression of beta-catenin-knockout colon cells, dose response, cell-based, HCT116, human colon tumor (AID 1045).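 Also: HCT116 colon tumor cells with beta catenin knocked out; cells exposed to compound for 60 hours.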 It counts as functional.
Assay [4] is described as follows: HepG2 cell cytotoxicity, dose response, cytotoxicity control, ATP luminescence, cherry-pick, activator set 2 (AID 1053143). It counts as functional, cell-based.
A short description of assay [5]: growth suppression of PTEN-null colon cells, dose response, cell-based, HCT116 PTEN knockout (AID 1047).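 Also: HCT116 colon tumor cells with PTEN knocked out; cells exposed to compound for 60 hours before readout; potency for loss of cell viability measured by luminescence.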 It counts as functional.
A short description of assay [6]: control 3'UTR Renilla luciferase suppression, dose response, counter-screen for Shn3 inhibitor project, cell-based, Clone20-Shn3RL, cherry-picked (AID 624133). The class given is functional. A general note: A counterscreen serves to expose hits that act by an unwanted route or on another target.
Assay [7] has as its target Metabotropic glutamate receptor 3 (Rattus norvegicus, UniProt P31422). The experiment in a line: mGlu3 NAM potency via calcium readout, dose response, mGlu3 NAM project, TREx293 cells, Galpha15, calcium flux (AID 651840). The class given is functional.
The nature of assay [8]: human group III sPLA2 inhibitors, dose response, biochemical, QFRET, IC50 (AID 743457).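 Also: green fluorescence rise as the enzyme cleaves BODIPY PC-A2 in liposomes; potency for inhibition of the enzyme.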
A short description of assay [9]: ADAM10 inhibitors, peptide cleavage, dose response, biochemical, QFRET (AID 743254).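 Also: ADAM10 enzyme with the DM2 quenched FRET peptide as substrate; EDANS fluorescence gain as the protease cuts the substrate; inhibitor potency against ADAM10 proteolytic activity.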
Assay [10] deals with Disintegrin and metalloproteinase domain-containing protein 17 (Homo sapiens, UniProt P78536). The experiment in a line: ADAM17 protease inhibitors, dose response, counter-screen for ADAM10 exosite inhibitor project, biochemical, quenched FRET substrate (AID 743253).
Disintegrin and metalloproteinase domain-containing protein 17, sequence (P78536 whole entry, the tested form may be a part): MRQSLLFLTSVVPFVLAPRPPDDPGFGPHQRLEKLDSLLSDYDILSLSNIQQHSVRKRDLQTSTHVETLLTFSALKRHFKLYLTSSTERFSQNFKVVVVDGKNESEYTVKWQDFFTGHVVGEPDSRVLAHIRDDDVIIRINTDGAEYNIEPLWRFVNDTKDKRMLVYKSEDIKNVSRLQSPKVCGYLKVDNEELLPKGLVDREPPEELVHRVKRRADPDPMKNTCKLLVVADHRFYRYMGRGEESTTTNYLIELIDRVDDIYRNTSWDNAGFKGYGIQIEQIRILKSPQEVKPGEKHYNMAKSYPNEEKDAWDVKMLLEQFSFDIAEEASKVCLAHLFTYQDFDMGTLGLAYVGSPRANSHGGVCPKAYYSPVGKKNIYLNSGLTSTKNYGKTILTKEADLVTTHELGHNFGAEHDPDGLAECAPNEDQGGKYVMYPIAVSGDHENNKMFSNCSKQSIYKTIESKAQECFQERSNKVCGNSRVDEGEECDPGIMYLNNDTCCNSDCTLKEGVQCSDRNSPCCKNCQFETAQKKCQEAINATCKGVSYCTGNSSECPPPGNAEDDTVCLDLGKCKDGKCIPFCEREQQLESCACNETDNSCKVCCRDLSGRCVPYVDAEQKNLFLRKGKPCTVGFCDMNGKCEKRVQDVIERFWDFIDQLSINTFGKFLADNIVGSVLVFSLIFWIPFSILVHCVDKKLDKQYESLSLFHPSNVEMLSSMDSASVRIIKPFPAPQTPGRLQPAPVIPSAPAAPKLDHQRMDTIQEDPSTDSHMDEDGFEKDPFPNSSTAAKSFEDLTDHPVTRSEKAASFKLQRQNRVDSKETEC
The next assay deals with Nonstructural protein 1 (Influenza A virus, UniProt Q194T2). The class given is functional, Influenza A virus (A/California/07/2009(H1N1)).
Nonstructural protein 1, sequence (Q194T2 whole entry): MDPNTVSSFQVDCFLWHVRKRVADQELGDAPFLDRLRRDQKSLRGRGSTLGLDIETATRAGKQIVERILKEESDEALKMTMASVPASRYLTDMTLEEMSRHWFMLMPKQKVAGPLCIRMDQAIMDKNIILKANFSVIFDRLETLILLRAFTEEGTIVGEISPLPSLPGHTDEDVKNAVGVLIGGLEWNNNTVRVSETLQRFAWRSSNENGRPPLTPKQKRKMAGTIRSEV
For another assay, the system named is HeLa. The experiment in a line: HeLa cell cytotoxicity, dose response, cytotoxicity control, ATP luminescence, cherry-pick samples (AID 687004). The class given is functional, cell-based. Particulars: Homo sapiens.
Assay [11] in a line: T. cruzi growth inhibition in host cells, dose response, cell-based, plate reader, dry powder, set 2 (AID 652275). It counts as functional.

What is called AC50 is the midpoint of the concentration-response curve, whichever way the signal moves. The term EC50 denotes the concentration at which the effect is half-maximal. By IC50 is commonly meant the concentration needed to halve the response being measured.

Metabotropic glutamate receptor 3, sequence (P31422 whole entry): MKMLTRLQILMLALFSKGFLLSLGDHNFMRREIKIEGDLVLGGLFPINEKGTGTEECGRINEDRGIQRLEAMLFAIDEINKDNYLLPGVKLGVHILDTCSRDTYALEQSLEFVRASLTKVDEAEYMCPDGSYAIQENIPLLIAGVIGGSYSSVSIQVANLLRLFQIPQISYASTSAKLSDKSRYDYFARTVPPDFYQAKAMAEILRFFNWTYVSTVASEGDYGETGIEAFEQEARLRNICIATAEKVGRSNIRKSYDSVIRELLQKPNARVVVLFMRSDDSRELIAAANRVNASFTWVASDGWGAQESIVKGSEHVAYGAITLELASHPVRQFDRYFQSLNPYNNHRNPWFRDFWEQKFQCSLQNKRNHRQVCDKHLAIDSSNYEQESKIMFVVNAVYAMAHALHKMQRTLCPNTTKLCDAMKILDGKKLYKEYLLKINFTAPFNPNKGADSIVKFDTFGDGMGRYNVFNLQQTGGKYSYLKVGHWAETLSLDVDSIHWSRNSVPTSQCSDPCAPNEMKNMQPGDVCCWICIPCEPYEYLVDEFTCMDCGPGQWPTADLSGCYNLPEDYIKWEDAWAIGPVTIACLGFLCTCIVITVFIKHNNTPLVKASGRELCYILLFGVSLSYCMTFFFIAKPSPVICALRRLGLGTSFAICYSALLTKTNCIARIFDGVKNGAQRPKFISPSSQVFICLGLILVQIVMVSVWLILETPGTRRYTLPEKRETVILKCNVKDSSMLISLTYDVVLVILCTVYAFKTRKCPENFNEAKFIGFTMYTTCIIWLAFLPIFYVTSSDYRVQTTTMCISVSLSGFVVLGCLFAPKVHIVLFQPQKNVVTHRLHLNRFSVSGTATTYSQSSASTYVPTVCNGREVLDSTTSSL

Regarding `Cc1cccc(/C=C(\c2nc3ccccc3[nH]2)S(=O)(=O)c2ccccc2)c1`, the AC50 on Paired box protein Pax-8 is 4.1 µM (active); in [1] it was 4.5 µM (active); in assay [2] it was 24.5 µM (active); in assay [4], 11.1 µM (active); in [6], 7.04 µM (active). The 50% effective concentration (EC50) in assay [3] is 2.37 µM (active); in [5], 2.33 µM (active).

For the molecule `COc1ccc(C#Cc2ccc(C(=O)N3CCCC(C)(C)C3)cc2)cc1`, the IC50 in assay [7] turned out to be 2.01 µM.

For the molecule `c1ccc2c(c1)c1c3n2CCNC3CCC1` (stereo unspecified), the IC50 in assay [8] is > 122 µM (inactive).

As for `NC(=O)[C@H]1CC2(CC(c3cccc(NC(=O)CC(c4ccccc4)c4ccccc4)c3)=NO2)CN1C(=O)CC(c1ccccc1)c1ccccc1` (stereo partly specified), the IC50 in [9] and in assay [10] was > 69.5 µM (inactive) in each case.

Turning to `CCN1C(=O)/C(=C2/C=Cc3ccccc3N2CC)SC1=S`, the half-inhibitory concentration (IC50) was 9.45 µM (active) on Nonstructural protein 1 and 94.1 µM (inactive) in assay [8].

With `CC(C)NC(=O)Nc1ccc2c(c1)C(=O)N([C@@H](C)CO)C[C@H](C)[C@@H](CN(C)Cc1ccc3c(c1)OCO3)OCCCC[C@@H](C)O2`, in the assay with HeLa, the AC50 was 19.5 µM (active).

With `CC(C)N1C[C@H](CN(C)Cc2ccc(Oc3ccccc3)cc2)Oc2c(NC(=O)c3ccncc3)cccc2C1=O`, in assay [11], the AC50 was 0.00193 µM (active).

With `C=CCC1(O)CCCN(C(=O)c2ccc(C#Cc3ccc(OC)cc3)cc2)C1` (stereo unspecified), in [7], the IC50 is 0.783 µM.
